This note sets out measurements from patent US9561228B2 (Celgene Avilomics Research, Inc., priority 2013, dated 2017).

Test [1] concerns ERK1/2 phosphorylation of p90RSK in HCT116 cells. The test is described as follows: Detection of total and phospho-RSK by MSD ELISA (HCT116). The test is classed as cell-based. The settings on record: Homo sapiens, HCT-116, read-out: ERK1/ERK2 PRSK HCT116 EC50. Summed up:
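HCT116 cells treated with compound in RPMI/10% FBS for 2 h at 37° C, then lysed. Phospho-RSK (Ser380) and total RSK in lysates measured by MSD sandwich electrochemiluminescence ELISA as a readout of ERK1/2 activity.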
For orientation: An ELISA detects its analyte on a solid surface through an enzyme-linked reagent.

The target in a further test is T1, MEK1 activated ERK1 (Homo sapiens, UniProt P27361).
T1 construct: purchased Millipore (Billerica, Mass.) 14-439-K
T1 sequence (P27361 whole entry): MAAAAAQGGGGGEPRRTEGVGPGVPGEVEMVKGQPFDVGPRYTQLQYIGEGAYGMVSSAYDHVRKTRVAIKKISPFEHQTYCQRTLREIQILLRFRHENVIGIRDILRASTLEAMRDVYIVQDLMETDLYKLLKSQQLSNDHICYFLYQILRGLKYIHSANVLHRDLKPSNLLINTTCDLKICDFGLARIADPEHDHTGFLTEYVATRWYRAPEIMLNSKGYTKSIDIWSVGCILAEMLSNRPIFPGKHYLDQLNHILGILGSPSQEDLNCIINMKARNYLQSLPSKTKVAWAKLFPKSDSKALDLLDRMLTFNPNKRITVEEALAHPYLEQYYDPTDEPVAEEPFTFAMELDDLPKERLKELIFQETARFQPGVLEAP
The test is described as follows: Omnia continuous-read kinase assay for potency against MEK1 activated ERK1. The test is classed as biochemical. The note with it: ATP at KM, WT. Summed up:
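Apparent IC50 came from initial reaction slopes (RFU vs time) plotted against log inhibitor with a variable-slope fit. Reactions were started with ERK1 (4 nM final) added to 50 μM ATP, roughly at its appKM, and 10 μM Sox-conjugated ST17 peptide in 20 mM Tris pH 7.5, 5 mM MgCl2. Fluorescence was monitored every 71 seconds.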

The target in another test is T2, Erk1 (Homo sapiens, UniProt P27361).
T2 construct: purchased Millipore 14-439
T2 sequence (P27361 whole entry): as above
The test is described as follows: Protein Mass Modification Assay (intact protein MALDI, 60 min, 10-fold excess of compound). The test is classed as binding. Summed up:
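Human Erk1 was incubated 60 min at room temperature with a 10-fold molar excess of compound, then analysed as intact protein by MALDI with sinapinic acid matrix. The centroid mass shift versus untreated protein was divided by compound molecular weight to give percent modified protein.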

By IC50 is commonly meant the concentration that inhibits the measured activity by half. As for `C=CC(=O)Nc1cc(CN2CCN(C(C)=O)CC2)ccc1Nc1nc(Nc2cc(OC)ncc2C)ncc1C(F)(F)F` [Compound I-381, N-(5-((4-acetylpiperazin-1-yl)methyl)-2-((2-((2-methoxy-5-methylpyridin-4-yl)amino)-5-(trifluoromethyl)pyrimidin-4-yl)amino)phenyl)acrylamide], the EC50 in test [1] is under 100 nM. Besides, on MEK1 activated ERK1, the IC50 is under 100 nM. Besides, at Erk1, the “ERK1 Mass Mod (%)” value is on record as “E (a mass modification of ≧70%)”.

For `C=CC(=O)Nc1cc(CN2CCN(C(C)=O)CC2)ccc1Nc1nc(Nc2nc(OC)ncc2C)ncc1C(F)(F)F` [Compound I-382, N-(5-((4-acetylpiperazin-1-yl)methyl)-2-((2-((2-methoxy-5-methylpyrimidin-4-yl)amino)-5-(trifluoromethyl)pyrimidin-4-yl)amino)phenyl)acrylamide], the EC50 in test [1] fell in the range of 501 to 999 nM. The half-inhibitory concentration (IC50) at MEK1 activated ERK1 was 101 to 500 nM. Moreover, the “ERK1 Mass Mod (%)” value at Erk1 is reported as “E (a mass modification of ≧70%)”.

In the case of `C=CC(=O)Nc1cc(CN2CCN(S(C)(=O)=O)CC2)ccc1Nc1nc(Nc2nc(OC)ncc2C)ncc1C(F)(F)F` [Compound I-383, N-(2-((2-((2-methoxy-5-methylpyrimidin-4-yl)amino)-5-(trifluoromethyl)pyrimidin-4-yl)amino)-5-((4-(methylsulfonyl)piperazin-1-yl)methyl)phenyl)acrylamide], the EC50 in test [1] was in the range of 101 to 500 nM. Moreover, the IC50 on MEK1 activated ERK1 lay within 101 to 500 nM. At Erk1, the “ERK1 Mass Mod (%)” value was “E (a mass modification of ≧70%)”.

As to `C=CC(=O)Nc1cc(CN2CCN(S(C)(=O)=O)CC2)ccc1Nc1nc(Nc2cc(OC)ncc2C)ncc1C(F)(F)F` [Compound I-384, N-(2-((2-((2-methoxy-5-methylpyridin-4-yl)amino)-5-(trifluoromethyl)pyrimidin-4-yl)amino)-5-((4-(methylsulfonyl)piperazin-1-yl)methyl)phenyl)acrylamide], the EC50 in test [1] was under 100 nM. Moreover, on MEK1 activated ERK1, the IC50 is under 100 nM. Further, the “ERK1 Mass Mod (%)” value on Erk1 is listed as “E (a mass modification of ≧70%)”.

As for `C=CC(=O)Nc1cc(CN2CCN(C(=O)CO)CC2)ccc1Nc1nc(Nc2cc(OC)ncc2C)ncc1C(F)(F)F` [Compound I-385, N-(5-((4-(2-hydroxyacetyl)piperazin-1-yl)methyl)-2-((2-((2-methoxy-5-methylpyridin-4-yl)amino)-5-(trifluoromethyl)pyrimidin-4-yl)amino)phenyl)acrylamide], the EC50 in test [1] is under 100 nM. In addition, at MEK1 activated ERK1, the half-maximal inhibitory concentration (IC50) is under 100 nM. On Erk1, the “ERK1 Mass Mod (%)” value is reported as “E (a mass modification of ≧70%)”.

Consider `C=CC(=O)Nc1cc(CN2CCN(C(=O)CO)CC2)ccc1Nc1nc(Nc2nc(OC)ncc2C)ncc1C(F)(F)F` [Compound I-386, N-(5-((4-(2-hydroxyacetyl)piperazin-1-yl)methyl)-2-((2-((2-methoxy-5-methylpyrimidin-4-yl)amino)-5-(trifluoromethyl)pyrimidin-4-yl)amino)phenyl)acrylamide], for which the EC50 in test [1] fell in the range of 501 to 999 nM. In addition, the IC50 at MEK1 activated ERK1 lay within 501 to 999 nM. Further, on Erk1, the “ERK1 Mass Mod (%)” value is on record as “E (a mass modification of ≧70%)”.

For the compound `C=CC(=O)Nc1cc(OCC(N)=O)ccc1Nc1nc(NC2CCOCC2)ncc1C(F)(F)F` [Compound I-387, N-(5-(2-amino-2-oxoethoxy)-2-((2-((tetrahydro-2H-pyran-4-yl)amino)-5-(trifluoromethyl)pyrimidin-4-yl)amino)phenyl)acrylamide], the EC50 in test [1] lay within 101 to 500 nM. Besides, the IC50 on MEK1 activated ERK1 lay in the range of 101 to 500 nM. The “ERK1 Mass Mod (%)” value at Erk1 is listed as “E (a mass modification of ≧70%)”.

With `C=CC(=O)Nc1cc(CN2CCN(C(=O)c3cccnc3)CC2)ccc1Nc1nc(Nc2cc(OC)ncc2C)ncc1C(F)(F)F` [Compound I-389, N-(2-((2-((2-methoxy-5-methylpyridin-4-yl)amino)-5-(trifluoromethyl)pyrimidin-4-yl)amino)-5-((4-nicotinoylpiperazin-1-yl)methyl)phenyl)acrylamide], the EC50 in test [1] was under 100 nM. Moreover, at MEK1 activated ERK1, the 50% inhibitory concentration (IC50) was under 100 nM. The “ERK1 Mass Mod (%)” value at Erk1 is on record as “E (a mass modification of ≧70%)”.

For `C=CC(=O)Nc1cc(CN2CCN(C(=O)c3cnccn3)CC2)ccc1Nc1nc(Nc2cc(OC)ncc2C)ncc1C(F)(F)F` [Compound I-390, N-(2-((2-((2-methoxy-5-methylpyridin-4-yl)amino)-5-(trifluoromethyl)pyrimidin-4-yl)amino)-5-((4-(pyrazine-2-carbonyl)piperazin-1-yl)methyl)phenyl)acrylamide], in test [1], the EC50 was under 100 nM. The IC50 at MEK1 activated ERK1 was under 100 nM. For the same compound, the “ERK1 Mass Mod (%)” value at Erk1 was “E (a mass modification of ≧70%)”.

Regarding `C=CC(=O)Nc1cc(CN2CCN(C(=O)c3cccnc3)CC2)ccc1Nc1nc(Nc2nc(OC)ncc2C)ncc1C(F)(F)F` [Compound I-392, N-(2-((2-((2-methoxy-5-methylpyrimidin-4-yl)amino)-5-(trifluoromethyl)pyrimidin-4-yl)amino)-5-((4-nicotinoylpiperazin-1-yl)methyl)phenyl)acrylamide], the EC50 in test [1] is over 1000 nM. Also, the concentration for half-maximal inhibition (IC50) on MEK1 activated ERK1 was 101 to 500 nM. Moreover, the “ERK1 Mass Mod (%)” value on Erk1 is “E (a mass modification of ≧70%)”.

`C=CC(=O)Nc1cc(CN2CCN(C(=O)c3cnccn3)CC2)ccc1Nc1nc(Nc2nc(OC)ncc2C)ncc1C(F)(F)F` [Compound I-393, N-(2-((2-((2-methoxy-5-methylpyrimidin-4-yl)amino)-5-(trifluoromethyl)pyrimidin-4-yl)amino)-5-((4-(pyrazine-2-carbonyl)piperazin-1-yl)methyl)phenyl)acrylamide]: in test [1], the EC50 fell in the range of 501 to 999 nM. In addition, on MEK1 activated ERK1, the IC50 lay within 501 to 999 nM. Besides, on Erk1, the “ERK1 Mass Mod (%)” value is “E (a mass modification of ≧70%)”.

Turning to `C=CC(=O)Nc1cc(CN2CCN(C)CC2)ccc1Nc1nc(Nc2nc(OC)ncc2C)ncc1C(F)(F)F` [Compound I-394, N-(2-((2-((2-methoxy-5-methylpyrimidin-4-yl)amino)-5-(trifluoromethyl)pyrimidin-4-yl)amino)-5-((4-methylpiperazin-1-yl)methyl)phenyl)acrylamide], the EC50 in test [1] was in the range of 501 to 999 nM. On MEK1 activated ERK1, the half-inhibitory concentration (IC50) fell in the range of 101 to 500 nM. Further, the “ERK1 Mass Mod (%)” value on Erk1 was “E (a mass modification of ≧70%)”.

With `C=CC(=O)Nc1ccc(OCC(N)=O)cc1Nc1nc(NC2CCOCC2)ncc1C(F)(F)F` [Compound I-395, N-(4-(2-amino-2-oxoethoxy)-2-((2-((tetrahydro-2H-pyran-4-yl)amino)-5-(trifluoromethyl)pyrimidin-4-yl)amino)phenyl)acrylamide], the EC50 in test [1] is over 1000 nM. Besides, the half-maximal inhibitory concentration (IC50) at MEK1 activated ERK1 is over 1000 nM. Besides, the “ERK1 Mass Mod (%)” value on Erk1 is given as “E (a mass modification of ≧70%)”.

As for `C=CC(=O)Nc1cc(OCCN)ccc1Nc1nc(Nc2cc(OC)ncc2C)ncc1C(F)(F)F` [Compound I-396, N-(5-(2-aminoethoxy)-2-((2-((2-methoxy-5-methylpyridin-4-yl)amino)-5-(trifluoromethyl)pyrimidin-4-yl)amino)phenyl)acrylamide], the EC50 in test [1] lay in the range of 101 to 500 nM. Also, at MEK1 activated ERK1, the IC50 is under 100 nM. Moreover, at Erk1, the “ERK1 Mass Mod (%)” value was “E (a mass modification of ≧70%)”.

Consider `C=CC(=O)Nc1cc(C)c(C#N)cc1Nc1nc(NC2CCOCC2)ncc1C(F)(F)F` [Compound I-397, N-(4-cyano-5-methyl-2-((2-((tetrahydro-2H-pyran-4-yl)amino)-5-(trifluoromethyl)pyrimidin-4-yl)amino)phenyl)acrylamide], for which, in test [1], the EC50 is over 1000 nM. For the same compound, the 50% inhibitory concentration (IC50) on MEK1 activated ERK1 is over 1000 nM. Moreover, the “ERK1 Mass Mod (%)” value at Erk1 is reported as “F (a mass modification of 31-69%)”.
